# Measurements: patent US6060608A, “Analogs of CC-1065 and the duocarmycins” (The Scripps Research Institute, priority 1999, dated 2000)
# Read-outs that look alike come from different tables or passages of the source.
# Legend:
# w794 duplex DNA = assay: DNA alkylation selectivity and efficiency within w794 DNA, thermally-induced strand cleavage and PAGE; assay type: biochemical, SV40; conditions: for DNA alkylation efficiency, natural/unnatural enantiomer ratio: (+)/ent-(-)
# From the text: DNA Alkylation Selectivity and Efficiency. The DNA alkylation properties of the agents were examined within w794 duplex DNA, a 144 base-pair segment of duplex DNA for which comparative results are available for related agents. The alkylation site identification and the assessment of the relative selectivity among the available sites were obtained by thermally-induced strand cleavage of the singly 5' end-labeled duplex DNA after exposure to the agents. Following treatment of the end-labeled duplex DNA with a range of agent concentrations, the unbound agent was removed by EtOH precipitation of the DNA. Redissolution of the DNA in aqueous buffer, thermolysis (100° C., 30 min) to induce strand cleavage at the sites of DNA alkylation, denaturing high resolution polyacrylamide gel electrophoresis (PAGE) adjacent to Sanger dideoxynucleotide sequencing standards, and autoradiography led to identification of the DNA cleavage and alkylation sites. The DNA alkylation reaction selectivities observed under the incubation conditions for the agents detailed herein have proven identical to the alkylation selectivities observed with shorter or extended reaction periods or when the reactions were conducted at different temperatures (37 or 4° C., 0.5-7 d). As discussed below, the rates and efficiencies but not final relative efficiencies of DNA alkylation were altered by changing the reaction temperatures.
# DNA Alkylation Properties. […] The DNA alkylation reaction was examined within w794 DNA for which comparative results are available for past agents. The alkylation site identification was obtained by thermal strand cleavage of the singly 5' end-labeled duplex DNA after exposure to the agents. Following treatment of the labeled DNA with a range of agent concentrations, the unbound agent was removed by EtOH precipitation of the DNA. Redissolution of the DNA in aqueous buffer, thermolysis at 100° C. (30 min) to induce depurination and strand cleavage at the adenine N3 or guanine N3 minor groove alkylation sites, denaturing high resolution PAGE adjacent to Sanger sequencing standards and autoradiography provided the DNA cleavage and alkylation sites.
# DNA Alkylation Studies: selectivity and Efficiency. General procedures, the preparation of singly ^32 P 5' end-labeled double stranded DNA, the agent binding studies, gel electrophoresis, and autoradiography were conducted according to standard procedures. Eppendorf tubes containing the 5' end-labeled DNA (9 μL) in TE buffer (10 mM Tris, 1 mM EDTA, pH 7.5) were treated with the agent in DMSO (1 μL at the specified concentration). The solution was mixed by vortexing and brief centrifugation and subsequently incubated at 4 or 25° C. for 24 h (natural enantiomers) and 25 or 37° C. (unnatural enantiomers) for 72 h. The covalently modified DNA was separated from unbound agent by EtOH precipitation and resuspended in TE buffer (10 μL). The solution of DNA in an Eppendorf tube sealed with parafilm was warmed at 100° C. for 30 min to induce cleavage at the alkylation sites, allowed to cool to 25° C. and centrifuged. Formamide dye (0.03% xylene cyanol FF, 0.03% bromophenol blue, 8.7% Na2 EDTA 250 mM) was added (5 μL) to the supernatant. Prior to electrophoresis, the sample was denatured by warming at 100° C. for 5 min, placed in an icebath, and centrifuged, and the supernatant (3 μL) was loaded directly onto the gel. Sanger dideoxynucleotide sequencing reactions were run as standards adjacent to the reaction samples. Polyacrylamide gel electrophoresis (PAGE) was run on an 8% sequencing gel under denaturing conditions (8 M urea) in TBE buffer (100 mM Tris, 100 mM boric acid, 0.2 mM Na2 EDTA) followed by autoradiography.
# DNA Alkylation of w794 DNA. Eppendorf tubes containing the 5'-end labeled DNA (9 μL) in TE buffer (10 mM Tris, 1 mM EDTA, pH 7.2) were treated with the agent in DMSO (1 μL at the specified concentration). […]
# [1] = Aqueous solvolysis reactivity followed by UV; assay type: physicochemical
# Experimental: The reactivity of 217-219 was assessed by following the solvolysis spectrophotometrically by UV at both pH 3 (50% CH3 OH-buffer, buffer=4:1:20 (v/v/v) 0.1 M citric acid, 0.2 M Na2 HPO4, H2 O) and pH 7 (1:1 H2 O--CH3 OH) measuring both the disappearance of the long-wavelength absorption band of the F2 CBI chromophore and the appearance of a short-wavelength absorption band attributable to the ring open products (FIG. 31).
# Aqueous Solvolysis Reactivity. pH 3: N-BOC-CCBI (25, 100 μg) was dissolved in CH3 OH (1.5 mL) and mixed with pH 3 aqueous buffer (1.5 mL). The buffer contained 4:1:20 (v:v:v) 0.1 M citric acid, 0.2 M Na2 HPO4 and H2 O, respectively. The solvolysis solution was sealed and kept at 25° C. protected from light. The UV spectrum was measured at regular intervals every 2 h during the first day, every 12 h for another week, and every 24 h for an additional week. The decrease in the long-wavelength absorption at 322 nm and the increase in the short-wavelength absorption at 268 nm were monitored, FIG. 1.
# pH 2: Samples of 25 (100 μg) and 26 (50 μg) were dissolved in CH3 OH (1.5 mL) and the solutions were mixed with aqueous buffer (pH 2.05, 1.5 mL). The buffer contained 4:1:20 (v:v:v) 1.0 M citric acid, 0.2 M Na2 HPO4, and H2 O, respectively. Immediately after mixing, the UV spectra of the solutions were measured against a reference solution containing CH3 OH (1.5 mL) and the aqueous buffer (1.5 mL) and these readings were used for the initial absorbance values. The solutions were stoppered, protected from the light, and allowed to stand at 25° C. UV spectra were recorded at regular intervals until constant values were obtained for the long and short wavelength absorbances. The solvolysis rate constants were determined from the slope of the lines obtained from linear least squares treatment of plots of ln[(Af -Ai)/(Af -A)] versus time using the short wavelength measurements for 25 and long wavelength measurements for 26).
# L1210 = assay: In vitro cytotoxic activity, L1210
structure (smiles),measurement,setting,value
"CC(C)(C)OC(=O)N1C[C@H]2C[C@@]23C1=CC(=O)c1ccc(C#N)cc13 [(+)-N-BOC-CCBI, N-(tert-Butyloxycarbonyl)-7-cyano-1,2,9,9a-tetrahydrocyclopropa[c]benz[e]indol-4-one]","DNA alkylation efficiency, natural/unnatural enantiomer ratio",w794 duplex DNA,1-2 ×
"CC(C)(C)OC(=O)N1CC2CC23C1=CC(=O)c1ccccc13 (single isomer, unassigned; (+)) [(+)-N-BOC-CBI, reference compound]","DNA alkylation efficiency, natural/unnatural enantiomer ratio",w794 duplex DNA,5-10 ×
"N#Cc1ccc2c(c1)C13CC1CN(C(=O)c1cc4c5c(ccc4[nH]1)N(C(N)=O)CC5)C3=CC2=O (single isomer, unassigned) [compound 39]",DNA alkylation sequence selectivity,w794 duplex DNA,strong preference but not absolute requirement for the fourth 5' base to be A or T versus G or C
"COc1ccc2c(c1)C13CC1CN(C(=O)OC(C)(C)C)C3=CC2=O (single isomer, unassigned; (+)) [(+)-N-BOC-MCBI, reference compound]","DNA alkylation efficiency, natural/unnatural enantiomer ratio",w794 duplex DNA,1-2 ×
N#Cc1ccc2c(c1)[C@]13C[C@H]1CN(C(=O)c1cc4c5c(ccc4[nH]1)N(C(N)=O)CC5)C3=CC2=O [(-)-CCBI-CDPI1],"DNA alkylation properties, comparison in words",w794 duplex DNA,(-)-CCBI-indole2 >(-)-CCBI-CDPI1>(-)-CCBI-TMI
"O=C1C=C2NCC3C(F)(F)C23c2ccccc21 (stereo not drawn) [compound 218, 9,9-difluoro-1,2,9,9a-tetrahydrocyclopropa[c]benzo[e]indol-4-one]",solvolysis reactivity relative to corresponding CBI agent lacking the two fluorines,[1],approximately 220 ×
same,half-life,"[1]; 50% ch3oh-buffer, pH 3",4.2 h
same,solvolysis rate constant k,"[1]; pH 3, 50% CH3OH-buffer",4.54e-05 s⁻¹
COc1cc2cc(C(=O)N3CC(CCl)c4c3cc(O)c3ccc(C#N)cc43)[nH]c2c(OC)c1OC (stereo not drawn) [compound 34],cytotoxic activity of seco precursors versus cyclopropane containing agents,L1210,indistinguishable from the cyclopropane containing agents
"COC(=O)c1cc2c([nH]1)C(=O)C=C1N(C(=O)c3cc4cc(OC)c(OC)c(OC)c4[nH]3)CC3CC123 (single isomer, unassigned) [ent-(-)-duocarmycin SA (2), reference compound]","DNA alkylation properties, comparison in words",w794 duplex DNA,slightly more effective
COc1cc2cc(C(=O)N3C[C@H]4C[C@@]45C3=CC(=O)c3ccc(C#N)cc35)[nH]c2c(OC)c1OC [(+)-CCBI-TMI (35)],"DNA alkylation properties, comparison in words",w794 duplex DNA,exhibited the same selectivity and efficiency of DNA alkylation
same,concentration of detectable alkylation of high affinity site 5'-AATTA,"w794 duplex DNA; 25° C., 24 h",10^-6 to 10^-7 M
"N#Cc1ccc2c(c1)C13CC1CNC3=CC2=O (stereo not drawn) [compound 26, 7-Cyano-1,2,9,9a-tetrahydrocyclopropa[c]benz[e]indol-4-one]",half-life,"[1]; ch3oh-buffer 1:1, pH 2",91.5 h
COc1cc2cc(C(=O)N3CC4C(F)(F)C45C3=CC(=O)c3ccccc35)[nH]c2c(OC)c1OC (racemic) [compound 224],"DNA alkylation properties, comparison in words",w794 duplex DNA,steadily increase as the temperature was decreased from 37 to 25 to 4 °C
same,DNA alkylation sequence selectivity,w794 duplex DNA; listed as F2 CBI-TMI,only adenine N3 alkylation was detected
same,DNA alkylation less efficient than CBI-TMI,w794 duplex DNA; racemic,100-1000 ×
same,"DNA alkylation less efficient, by densitometry, average of several comparisons",w794 duplex DNA; racemic F2 CBI-TMI versus (+)-CBI-TMI,675-725 ×
"CCOC(=O)CCC(=O)N1CC(CCl)c2c1cc(O)c1ccccc21 (stereo not drawn) [compound 115, 1-Chloromethyl-3-(4-ethoxy-1,4-dioxobutyl)-5-hydroxy-1,2-dihydro-3H-benz[e]indole]","cytotoxic activity, ring opened precursor 115 versus cyclopropane 116",L1210; L1210,no distinctions were observed
same,IC50,"L1210; Mus musculus, L1210, read-out: cytotoxic activity IC50",5 to 6 nM
N#Cc1ccc2c(c1)[C@]13C[C@H]1CN(C(=O)c1cc4cc(NC(=O)c5cc6ccccc6[nH]5)ccc4[nH]1)C3=CC2=O [(-)-CCBI-indole2],"DNA alkylation properties, comparison in words",w794 duplex DNA,(-)-CCBI-indole2 >(-)-CCBI-CDPI1>(-)-CCBI-TMI
CC(C)(C)OC(=O)N1CC2C(F)(F)C23C1=CC(=O)c1ccccc13 (stereo not drawn) [compound 219],solvolysis stability/reactivity,[1],No substantial distinction in the reactivity of 217 and 219 was observed
same,half-life,"[1]; 1:1 h2o-ch3oh, pH 7",2.33 h
same,half-life,"[1]; 50% ch3oh-buffer, pH 3",0.26 h
same,solvolysis rate constant k,"[1]; pH 3, 50% CH3OH-buffer",0.000705 s⁻¹
same,solvolysis rate constant k,"[1]; pH 7, 1:1 H2O-CH3OH",8.27e-05 s⁻¹
CC(=O)N1CC2C(F)(F)C23C1=CC(=O)c1ccccc13 (stereo not drawn) [compound 217],solvolysis reactivity relative to corresponding CBI agent lacking the two fluorines,[1],500 ×
same,solvolysis stability/reactivity,[1],No substantial distinction in the reactivity of 217 and 219 was observed
"CC(C)(C)OC(=O)N1CC(CCl)c2c1cc(O)c1ccc(C#N)cc21 (stereo not drawn) [compound 23, 3-(tert-Butyloxycarbonyl)-1-(chloromethyl)-8-cyano-5-hydroxy-1,2-dihydro-3H-benz[e]indole]",cytotoxic activity of seco precursors versus cyclopropane containing agents,L1210,indistinguishable from the cyclopropane containing agents
N#Cc1ccc2c(O)cc3c(c2c1)C(CCl)CN3C(=O)c1cc2cc(NC(=O)c3cc4ccccc4[nH]3)ccc2[nH]1 (stereo not drawn) [compound 36],cytotoxic activity of seco precursors versus cyclopropane containing agents,L1210,indistinguishable from the cyclopropane containing agents
COc1cc2cc(C(=O)N3C[C@@H]4C[C@]45C3=CC(=O)c3ccc(C#N)cc35)[nH]c2c(OC)c1OC [ent-(-)-CCBI-TMI (35)],"DNA alkylation properties, comparison in words",w794 duplex DNA,nearly indistinguishable
same,"DNA alkylation properties, comparison in words",w794 duplex DNA; listed as (-)-CCBI-TMI,(-)-CCBI-indole2 >(-)-CCBI-CDPI1>(-)-CCBI-TMI
"CCOC(=O)C(=O)N1CC(CCl)c2c1cc(O)c1ccccc21 (stereo not drawn) [compound 114, 1-Chloromethyl-3-(2-ethoxy-1,2-dioxoethyl)-5-hydroxy-1,2-dihydro-3H-benz[e]indole]","DNA alkylation properties, comparison in words",w794 duplex DNA,more effective
N#Cc1ccc2c(O)cc3c(c2c1)C(CCl)CN3C(=O)c1cc2c3c(ccc2[nH]1)N(C(N)=O)CC3 (stereo not drawn) [compound 38],cytotoxic activity of seco precursors versus cyclopropane containing agents,L1210,indistinguishable from the cyclopropane containing agents
